No end group written: not given here.
Key:
[1] = system: pigeon crop-sac; assay: local crop-sac assay in the pigeon (prolactin / lactogenic activity); type: in vivo; conditions: Table 10; total dose 120 μg; mean ± SEM, number of birds in parentheses
Description: The growth-promoting activity of PL-HGH, the unpurified recombinant of Example 1 (fraction IV), [Cys(Cam)^53 -HGH-(1-134)], [Cys(Cam)^165, 182, 189 -HGH-(141-191)] and saline control were determined by the rat tibia test of Greenspan et al, Endocrinology 45, 455 (1949) and by the local crop-sac assay in the pigeon according to Lyons, Proc. Soc. Exp. Biol. 35, 645 (1937) and Nicoll, Endocrinology 80, 641 (1967). Amino acid compositions of acid and carboxypeptidase hydrolysates were determined in an automatic amino acid analyzer (model 120B, Beckman Instruments). For the analysis of tryptophan, the methanesulfonic acid hydrolysates were used. Amino-terminal residue and sequence analyses were preformed by the dansyl-Edman procedure. Isoelectric focusing was carried out in 8 M urea. Prolactin activity was estimated by the pigeon crop-sac assay. Microcomplement fixation experiments were performed with rabbit antisera to HCS. The gel-double-diffusion technique of Ouchterlony was done using 1% agar in 0.01 M phosphate buffer of pH 7.5. Exclusion chromatography of the purified fragments or the recombinant was performed on a Sephadex G-100 column (1.5×60 cm; V0 =35 ml) in 10 mM NH4 HCO3 (pH 8.4) at 21°. Circular dichroism (CD) spectra were obtained by a spectropolarimeter (Cary model 60) equipped with a circular dichroism attachment (model 6002). Microcomplement fixation was performed with the guinea pig antiserum to ovine prolactin. The gel double-diffusion technique of Ouchterlony was carried out with 1% agar in 10 mM phosphate buffer (pH 7.5). The prolactin activity was estimated by the local crop-sac assay in the pigeon.

[2] = system: antiserum to prolactin; assay: gel double-diffusion technique of Ouchterlony; type: binding
Description: Exclusion chromatography of the purified fragments or the recombinant was performed on a Sephadex G-100 column (1.5×60 cm; V0 =35 ml) in 10 mM NH4 HCO3 (pH 8.4) at 21°. Circular dichroism (CD) spectra were obtained by a spectropolarimeter (Cary model 60) equipped with a circular dichroism attachment (model 6002). Microcomplement fixation was performed with the guinea pig antiserum to ovine prolactin. The gel double-diffusion technique of Ouchterlony was carried out with 1% agar in 10 mM phosphate buffer (pH 7.5). The prolactin activity was estimated by the local crop-sac assay in the pigeon.

[3] = Birk and Li, Proc. Natl. Acad. Sci. U.S.A. 75(5), 2155 (1978); cited from earlier work
[4] = conformational, immunological and biological activity of Example 8 and 9 recombinants compared with native hormone; conditions: Examples 8 and 9, present tense, no data

Substance	Response (dry mucosal weight) [1] [mg]	precipitin line [2]	biological activity, in words [3]	conformational, immunological and biological activity, in words [4]
PRL-(1-53): NH2-terminal portion, residues 1-53, of ovine prolactin from fibrinolysin digestion (TPVCPNGPGNCQVSLRDLFDRAVMVSHYIHNLSSEMFNEFDKRYAQGKGFITM; ends and bridges not checked; cysteine pairing not given here; UniProt P01240 31-83, looked up, fragment)	10.1 ± 2.6	neither fragment gave a precipitin line	inactive	–
[Cys(Cam)^53 ]-HGH-(1-134)+(Lys^135,136,138, Glu^137,139, Nle^170, Ala^165,182,189)-HGH-(135-191)	–	–	–	analogous conformational, immunological and biological activity as native HGH

From patent US4189426A, “Recombinant hormonal compositions and method” (Hoffmann-La Roche, Inc., priority 1978, dated 1980)
